Data set [1] concerns clinical isolate 690 (H3 subtype). The data set can be described thus: microbe, parasite or virus in culture. Type of data set: cell-based. The settings on record: Influenza A virus, read-out: IC50 ± SD, H3 (690).
Data set [2] has as its system influenza A/Puerto Rico/8/34 (H1N1). Briefly: microbe, parasite or virus in culture. The settings on record: H1N1, MDCK, read-out: IC50 ± SD.
For the next data set, the system named is influenza B virus. Briefly: microbe, parasite or virus in culture. Particulars: read-out: IC50 ± SD, B. In kind it is cell-based.
Data set [3] has as its system clinical isolate 699 (H3 subtype). Briefly: microbe, parasite or virus in culture. Type of data set: cell-based. The settings on record: Influenza A virus, read-out: IC50 ± SD, H3 (699).
Data set [4] relates to influenza A/Aichi/2/68 (H3N2). The data set can be described thus: microbe, parasite or virus in culture. In kind it is cell-based. Particulars: H3N2, read-out: IC50 ± SD, H3N2.
Data set [5] concerns influenza A/Puerto Rico/8/34 (H1N1). The settings on record: /Puerto Rico/8/34, 24 h.
A short description of a further data set: in vitro. The settings on record: dog.

Where two headings read alike, the source gives them in different places. Residues, ends and D or L forms follow the SMILES beside them. *: point of attachment. Arachidoyl = CCCCCCCCCCCCCCCCCCCC(=O)*; Stearoyl = CCCCCCCCCCCCCCCCCC(=O)*; Palmitoyl = CCCCCCCCCCCCCCCC(=O)*

For `NC(=O)c1ncn([C@@H]2O[C@H](CO)[C@@H](O)[C@H]2O)n1` [Ribavirin, ribavirin], the IC50 in data set [1] came to 8.47 ± 3.01 µM; in data set [2], 12.85 ± 0.08 µM; in the data set on influenza B virus, 6.71 ± 0.93 µM; in data set [3], 4.92 ± 1.45 µM; in data set [4], 24.9 ± 1.1 µM.
As for `CCCCCCCCCCCCCCCCCCCC(=O)N[C@@H](CCCCN)C(=O)N[C@@H](CCCCN)C(=O)N[C@@H](Cc1c[nH]c2ccccc12)C(=O)N[C@@H](CCCCN)C(=O)NCC(=O)NCC(=O)NCC(=O)N[C@@H](C)C(=O)N[C@@H](CCCNC(=N)N)C(=O)N[C@@H](CC(C)C)C(=O)N1CCC[C@H]1C(=O)N[C@@H](CCCNC(=N)N)C(N)=O` [C20-Hp-GGG-Jp, C20-KKWKGGGARLPR] (Arachidoyl-KKWKGGGARLPR-NH2), the CC50 was above 200 µM. Also, it took 5.22 ± 0.37 µM to reach half-maximal inhibition in data set [5] (IC50).
The compound `CCCCCCCCCCCCCCCC(=O)N[C@@H](CCCCN)C(=O)N[C@@H](CCCCN)C(=O)N[C@@H](Cc1c[nH]c2ccccc12)C(=O)N[C@@H](CCCCN)C(=O)NCC(=O)NCC(=O)NCC(=O)N[C@@H](C)C(=O)N[C@@H](CCCNC(=N)N)C(=O)N[C@@H](CC(C)C)C(=O)N1CCC[C@H]1C(=O)N[C@@H](CCCNC(=N)N)C(N)=O` [C16-Hp-GGG-Jp, C16-KKWKGGGARLPR] (Palmitoyl-KKWKGGGARLPR-NH2) showed an IC50 in data set [5] of 8.05 ± 0.52 µM. Also, the CC50 at 48 h in the data set “in vitro” was above 200 µM.
In data set [5], `CCCCCCCCCCCCCCCCCC(=O)N[C@@H](C)C(=O)N[C@@H](CCCNC(=N)N)C(=O)N[C@@H](CC(C)C)C(=O)N1CCC[C@H]1C(=O)N[C@@H](CCCNC(=N)N)C(=O)NCC(=O)NCC(=O)NCC(=O)N[C@@H](CCCCN)C(=O)N[C@@H](CCCCN)C(=O)N[C@@H](Cc1c[nH]c2ccccc12)C(=O)N[C@@H](CCCCN)C(N)=O` [C18-Jp-GGG-Hp, C18-ARLPRGGGKKWK] (Stearoyl-ARLPRGGGKKWK-NH2) returned a concentration for half-maximal inhibition (IC50) of 5.09 ± 0.35 µM. In “in vitro”, the CC50 at 48 h is above 200 µM.
For `CCCCCCCCCCCCCCCC(=O)N[C@@H](C)C(=O)N[C@@H](CCCNC(=N)N)C(=O)N[C@@H](CC(C)C)C(=O)N1CCC[C@H]1C(=O)N[C@@H](CCCNC(=N)N)C(=O)N[C@@H](CCCCN)C(=O)N[C@@H](CCCCN)C(=O)N[C@@H](Cc1c[nH]c2ccccc12)C(=O)N[C@@H](CCCCN)C(N)=O` [C16-Jp-Hp, C16-ARLPRKKWK] (Palmitoyl-ARLPRKKWK-NH2), in that order: 1.29 ± 0.4 µM and above 200 µM.
For `CCCCCCCCCCCCCCCC(=O)N[C@@H](CCCCN)C(=O)N[C@@H](CCCCN)C(=O)N[C@@H](Cc1c[nH]c2ccccc12)C(=O)N[C@@H](CCCCN)C(=O)N[C@@H](C)C(=O)N[C@@H](CCCNC(=N)N)C(=O)N[C@@H](CC(C)C)C(=O)N1CCC[C@H]1C(=O)N[C@@H](CCCNC(=N)N)C(N)=O` [C16-Hp-Jp, C16-KKWKARLPR] (Palmitoyl-KKWKARLPR-NH2), in that order: 2.48 ± 0.24 µM and above 200 µM.
`CCCCCCCCCCCCCCCCCCCC(=O)N[C@@H](C)C(=O)N[C@@H](CCCNC(=N)N)C(=O)N[C@@H](CC(C)C)C(=O)N1CCC[C@H]1C(=O)N[C@@H](CCCNC(=N)N)C(=O)NCC(=O)NCC(=O)NCC(=O)N[C@@H](CCCCN)C(=O)N[C@@H](CCCCN)C(=O)N[C@@H](Cc1c[nH]c2ccccc12)C(=O)N[C@@H](CCCCN)C(N)=O` [C20-Jp-GGG-Hp, C20-ARLPRGGGKKWK] (Arachidoyl-ARLPRGGGKKWK-NH2) showed a CC50 above 200 µM. Further, in data set [5], it took 4.04 ± 0.02 µM to reach half-maximal inhibition (IC50).
For `CCCCCCCCCCCCCCCCCC(=O)N[C@@H](CCCCN)C(=O)N[C@@H](CCCCN)C(=O)N[C@@H](Cc1c[nH]c2ccccc12)C(=O)N[C@@H](CCCCN)C(=O)NCC(=O)NCC(=O)NCC(=O)N[C@@H](C)C(=O)N[C@@H](CCCNC(=N)N)C(=O)N[C@@H](CC(C)C)C(=O)N1CCC[C@H]1C(=O)N[C@@H](CCCNC(=N)N)C(N)=O` [C18-Hp-GGG-Jp, C18-KKWKGGGARLPR] (Stearoyl-KKWKGGGARLPR-NH2), in data set [5], it took 6.99 ± 2 µM to reach half-maximal inhibition (IC50). In “in vitro”, this compound showed a CC50 at 48 h above 200 µM.
For `CCCCCCCCCCCCCCCC(=O)N[C@@H](C)C(=O)N[C@@H](CCCNC(=N)N)C(=O)N[C@@H](CC(C)C)C(=O)N1CCC[C@H]1C(=O)N[C@@H](CCCNC(=N)N)C(=O)NCC(=O)NCC(=O)NCC(=O)N[C@@H](CCCCN)C(=O)N[C@@H](CCCCN)C(=O)N[C@@H](Cc1c[nH]c2ccccc12)C(=O)N[C@@H](CCCCN)C(N)=O` [C16-Jp-GGG-Hp, C16-ARLPRGGGKKWK] (Palmitoyl-ARLPRGGGKKWK-NH2), in that order: 6.79 ± 0.17 µM and above 200 µM.

One may read the IC50 as the concentration that gives 50% inhibition.
